From the supplement of paper PMC10307832

Assays:
Assay in all cases: relative viability (nuclei count vs DMSO), 5 days (fraction); higher = more cells survive
VE-821 + Pictilisib = compound: CS(=O)(=O)c1ccc(-c2cnc(N)c(C(=O)Nc3ccccc3)n2)cc1 [VE-821] + CS(=O)(=O)N1CCN(Cc2cc3nc(-c4cccc5[nH]ncc45)nc(N4CCOCC4)c3s2)CC1 [Pictilisib] (partner 1 µM)
In short: (§1)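 Relative viability divides the nuclei count in treated wells by that in vehicle wells. Lung cancer cell lines were seeded in 1536-well plates, dosed by pin tool the next day, and fixed and stained after 5 days in one step with final 0.05% Triton X-100, 1% formaldehyde and 1 ug/ml Hoechst. Dosing was a single drug or a fixed anchor-drug dose plus five library-drug doses (not always all listed) in √10 steps, and values are medians of duplicate plates imaged at 4×.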

Ruxolitinib + Navitoclax = compound: N#CC[C@H](C1CCCC1)n1cc(-c2ncnc3[nH]ccc23)cn1 [Ruxolitinib] + CC1(C)CCC(c2ccc(Cl)cc2)=C(CN2CCN(c3ccc(C(=O)NS(=O)(=O)c4ccc(N[C@H](CCN5CCOCC5)CSc5ccccc5)c(S(=O)(=O)C(F)(F)F)c4)cc3)CC2)C1 [Navitoclax] (partner 0.5 µM)
In short: as §1

VE-821 + Palbociclib = compound: CS(=O)(=O)c1ccc(-c2cnc(N)c(C(=O)Nc3ccccc3)n2)cc1 [VE-821] + CC(=O)c1c(C)c2cnc(Nc3ccc(N4CCNCC4)cn3)nc2n(C2CCCC2)c1=O [Palbociclib] (partner 0.5 µM)
In short: as §1

Ruxolitinib + Linsitinib = compound: N#CC[C@H](C1CCCC1)n1cc(-c2ncnc3[nH]ccc23)cn1 [Ruxolitinib] + C[C@]1(O)C[C@@H](c2nc(-c3ccc4ccc(-c5ccccc5)nc4c3)c3c(N)nccn32)C1 [Linsitinib] (partner 1 µM)
In short: as §1

Row | Cell Line | relative viability (VE-821 + Pictilisib; first compound 0.08 µM) | relative viability (VE-821 + Pictilisib; first compound 0.253 µM) | relative viability (VE-821 + Pictilisib; first compound 0.8 µM) | relative viability (VE-821 + Pictilisib; first compound 2.53 µM) | relative viability (VE-821 + Pictilisib; first compound 8 µM) | relative viability (Ruxolitinib + Navitoclax; first compound 0.08 µM) | relative viability (Ruxolitinib + Navitoclax; first compound 0.253 µM) | relative viability (Ruxolitinib + Navitoclax; first compound 0.8 µM) | relative viability (Ruxolitinib + Navitoclax; first compound 2.53 µM) | relative viability (Ruxolitinib + Navitoclax; first compound 8 µM) | relative viability (VE-821 + Palbociclib; first compound 0.08 µM) | relative viability (VE-821 + Palbociclib; first compound 0.253 µM) | relative viability (VE-821 + Palbociclib; first compound 0.8 µM) | relative viability (VE-821 + Palbociclib; first compound 2.53 µM) | relative viability (VE-821 + Palbociclib; first compound 8 µM) | relative viability (Ruxolitinib + Linsitinib; first compound 0.08 µM) | relative viability (Ruxolitinib + Linsitinib; first compound 0.253 µM) | relative viability (Ruxolitinib + Linsitinib; first compound 0.8 µM) | relative viability (Ruxolitinib + Linsitinib; first compound 2.53 µM) | relative viability (Ruxolitinib + Linsitinib; first compound 8 µM)
1 | LXF-289 | 0.969 | 0.754 | 0.796 | 0.869 | 0.808 | 0.914 | 0.956 | 0.891 | 0.92 | 0.778 | 0.583 | 0.606 | 0.716 | 0.677 | 0.712 | 0.919 | 0.972 | 0.858 | 0.892 | 0.813
2 | PC-3 [JPC-3] | 0.784 | 0.797 | 0.851 | 0.938 | 0.763 | 0.69 | 0.771 | 0.771 | 0.757 | 0.73 | 0.266 | 0.478 | 0.58 | 0.54 | 0.56 | 0.882 | 0.973 | 0.973 | 0.963 | 0.872
3 | NCI-H2009 | 0.873 | 0.754 | 0.881 | 0.894 | 0.664 | 1.2 | 1.2 | 1.16 | 0.961 | 0.897 | 0.204 | 0.215 | 0.234 | 0.18 | 0.188 | 1.21 | 1.23 | 1.28 | 1.02 | 0.904
4 | LK-2 | 0.709 | 0.59 | 0.601 | 0.595 | 0.606 |  | 0.719 | 1.11 | 0.9 | 0.708 | 0.762 | 0.737 | 0.781 | 0.563 | 0.639 | 0.459 | 0.715 | 0.722 | 0.36 | 0.765
5 | NCI-H1993 | 0.861 | 0.821 | 0.822 | 0.874 | 0.862 | 0.858 | 0.869 | 0.998 | 1.02 | 0.932 | 0.673 | 0.619 | 0.561 | 0.635 | 0.537 | 0.785 | 0.783 | 0.779 | 0.801 | 0.796
6 | HCC-15 | 0.947 | 0.757 | 0.781 | 0.92 | 0.749 | 0.688 | 0.686 | 0.699 | 0.629 | 0.567 | 0.822 | 0.767 | 0.809 | 0.907 | 0.748 | 0.855 | 0.849 | 0.855 | 0.842 | 0.737
7 | NCI-H322M | 0.549 |  | 0.49 | 0.608 | 0.422 | 1.36 | 1.26 | 1.27 | 1.53 | 1.44 | 0.446 | 0.462 | 0.463 | 0.483 | 0.443 | 1.05 | 0.9 | 0.997 | 0.91 | 1.17
